# According to patent US20260284087A1, “USES OF CANNABIDIOL (CBD) AND ADVANCED METABOLIC SYNDROME” (THE REGENTS OF THE UNIVERSITY OF CALIFORNIA, priority 2022, published 2026):
# Key:
# [1] = system: Otsuka Long-Evans Tokushima Fatty (OLETF) rats; experiment: CBD effect on brown adipose tissue loss in OLETF rats with progressive MetS; type: in vivo, rat; details: 15-week-old OLETF rats, 200 mg CBD/kg oral gavage for 5 weeks; p<0.05; BAT estimated from 2-dimensional images (surface area)
# Protocol: (§1) To assess the effects of a CBD on BAT loss associated with progressive MetS, a cohort of 15-week-old Otsuka Long-Evans Tokushima Fatty (OLETF) rats were administered 200 mg CBD/kg by oral gavage for 5 weeks. Animals were fed ad libitum and monitored in metabolic cages alongside vehicle-treated OLETF and lean strain control Long-Evans Tokushima Otsuka (LETO) rats. Brown adipose tissue content was estimated from 2-dimensional images to quantify surface area. The Otsuka Long-Evans Tokushima Fatty (OLETF) rat is a monogenic model of diet-induced obesity accelerated by a mutation in the CCK receptor. […] At >40 weeks of age, OLETF rats suffer from severe metabolic dysfunction and therefore serve as a model of aged, severe MetS.
# [2] = system: Otsuka Long-Evans Tokushima Fatty (OLETF) rats; experiment: Plasma metabolomics in CBD-treated OLETF rats; type: in vivo, rat; details: OLETF vs. CBD, 200 mg CBD/kg oral gavage for 5 weeks, p<0.0001
# Description: FIGS. 2A-2C CBD increases BAIBA. A) Metabolomic map showing metabolites with p<0.05 after Student's t-test, representing mean plasma peak intensity fold-changes between groups in metabolites with q<0.2, for OLETF vs. CBD, B) top 5 metabolites, associated pathway and change directionality listed by lowest p-value for OLETF vs. CBD and C) raw mean peak area of BAIBA. *p<0.05 compared to LETO and †p<0.05 compared to OLETF by ANOVA with Tukey's HSD or student's t-test.
# as §1
smiles,measurement,setting,value
"C=C(C)[C@@H]1CCC(C)=C[C@H]1c1c(O)cc(CCCCC)cc1O [CBD, Cannabidiol]",BAT masses preserved (of BAT lost in OLETF control),[1],55%
same,increase in ß-aminoisobutyric acid (BAIBA),[2],2.1 fold
